Reference: publication PMC10184511 (Neuro-Oncology Advances, 2023)

Columns and labels:
[1] = In vitro 3D BBB permeability assay; type: in vitro ADME; details: human, pH 7
[2] = system: p53-p21 axis in Mel-7 cells; experiment: Western blotting of p53-p21 axis, cell-cycle proteins and Cyt c, Mel-7; type: cell-based, human; details: 24 hours
BBB = details: previous report; cited from earlier work
[3] = metastatic melanoma patients, 200 mg/m^2 TMZ; cited from earlier work
[4] = description in words; cited from earlier work

With `Cn1nnc2c(C(N)=O)ncn2c1=O` [TMZ, temozolomide] the Papp A→B at 30 min, 100 μM [1] was 2.67 ×10⁻⁶ cm/s, the “Cyt c release into the cytoplasm” value ([2]; single agent, cytosolic fraction) was “increased” and the p53 levels ([2]; single-agent treatment, whole-cell lysate) was “substantially increased”. The BBB permeability (BBB) was 2.7 ×10⁻⁶ cm/s, the Cmax [3] was ~ 20 μg/mL and the lipophilicity [4] was “lipophilic”.
